Where a name gives a salt, the structure may show the parent alone.
Target: IDO2 (Homo sapiens (Human), UniProt Q6ZQW0)
Test: Cellular IDO2 assay, doxycycline and 5-methoxy-L-tryptophan medium, colorimetric
Type: cell-based
Details: cellular level, 72 h incubation, signal at 480 nm

Chain of IDO2 (Q6ZQW0 whole entry, species assumed): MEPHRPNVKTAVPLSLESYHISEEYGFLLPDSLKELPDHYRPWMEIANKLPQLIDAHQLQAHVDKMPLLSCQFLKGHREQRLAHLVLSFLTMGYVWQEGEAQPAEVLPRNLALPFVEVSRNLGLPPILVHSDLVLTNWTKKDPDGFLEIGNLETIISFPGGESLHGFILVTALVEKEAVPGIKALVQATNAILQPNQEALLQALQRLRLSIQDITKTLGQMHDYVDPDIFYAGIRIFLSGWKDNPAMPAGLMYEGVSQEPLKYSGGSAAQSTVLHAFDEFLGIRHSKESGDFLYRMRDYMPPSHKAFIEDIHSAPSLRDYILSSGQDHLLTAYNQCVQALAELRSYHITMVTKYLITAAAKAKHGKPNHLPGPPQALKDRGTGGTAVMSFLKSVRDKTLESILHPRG

| SMILES | IC50 |
| --- | --- |
| CON=C1c2cc(F)ccc2-n2c1nc1cc(CNS(C)(=O)=O)ccc1c2=O (stereo in doubt) [Compound 91, (Z)—N-((8-fluoro-6-(methoxyimino)-12-oxo-6,12-dihydroindolo[2,1-b]quinazolin-3-yl)methyl)methanesulfonamide] | < 50 nM |
| NCc1cccc2nc3n(c(=O)c12)-c1ccc(F)cc1C3=O [Compound 101, 1-(aminomethyl)-8-fluoroindolo[2,1-b]quinazoline-6,12-dione] | 50 to 500 nM |
| CON=C1c2cc(F)ccc2-n2c1nc1c(Nc3ccc(F)cc3)cccc1c2=O (stereo in doubt) [Compound 122, (Z)-8-Fluoro-4-((4-fluorophenyl)amino)-6-(methoxyimino)indolo[2,1-b]quinazolin-12(6H)-one] | > 500 nM |
| CC(C)(C)OC(=O)NCc1ccc2c(=O)n3c(nc2c1)C(=O)c1cc(F)ccc1-3 [Compound 92] | < 50 nM |
| CO/N=C1\c2cc(F)ccc2-n2c1nc1cc(CNS(N)(=O)=O)ccc1c2=O [Compound 99] | < 50 nM |
| Cc1ccc2nc3n(c(=O)c2c1Cl)-c1ccc(Br)cc1C3=O [Compound 105] | < 50 nM |
| N#Cc1ccc2c(c1)C(=O)c1nc3c(Br)ccc(F)c3c(=O)n1-2 [Compound 111] | 50 to 500 nM |
| CON=C1c2cc(F)ccc2-n2c1nc1cc(CNC(C)=O)ccc1c2=O (stereo in doubt) [Compound 94, (Z)—N-((8-fluoro-6-(methoxyimino)-12-oxo-6,12-dihydroindolo[2,1-b]quinazolin-3-yl)methyl)acetamide] | 50 to 500 nM |
| NCCNC(=O)c1ccc2c(c1)/C(=N\O)c1nc3cc(Cl)ccc3c(=O)n1-2 [Compound 61] | > 500 nM |
| O=C1c2cc(C(F)(F)F)ccc2-n2c1nc1ccccc1c2=O [Compound 53, 8-(Trifluoromethyl)indolo[2,1-b]quinazoline-6,12-dione] | < 50 nM |
| CS(=O)(=O)c1ccc2c(c1)/C(=N\O)c1nc3cc(F)ccc3c(=O)n1-2 [Compound 67] | 50 to 500 nM |
| CO/N=C1\c2cc(F)ccc2-n2c1nc1cc(CN3CCN(C)CC3)ccc1c2=O [Compound 74] | > 500 nM |
| Cc1ccc2nc3n(c(=O)c2c1)-c1ccc([N+](=O)[O-])cc1C3=O [Compound 52, 2-Methyl-8-nitroindolo[2,1-b]quinazoline-6,12-dione] | < 50 nM |
| CS(=O)(=O)c1ccc2c(c1)C(=O)c1nc3cc(F)cc(F)c3c(=O)n1-2 [Compound 106] | 50 to 500 nM |
| O=C1c2cc([N+](=O)[O-])ccc2-n2c1nc1ccc(F)cc1c2=O [Compound 54, 2-Fluoro-8-nitroindolo[2,1-b]quinazoline-6,12-dione] | < 50 nM |
| CN(C)Cc1ccc2nc3n(c(=O)c2c1Cl)-c1ccc(Br)cc1C3=O [Compound 107] | < 50 nM |
| CON=C1c2cc(C#N)ccc2-n2c1nc1c(Nc3ccc(F)cc3)cccc1c2=O (stereo in doubt) [Compound 118, (Z)-4-((4-Fluorophenyl)amino)-6-(methoxyimino)-12-oxo-6,12-dihydroindolo[2,1-b]quinazoline-8-carbonitrile] | < 50 nM |
| CN(C)S(=O)(=O)c1ccc2c(c1)C(=O)c1nc3cc(F)ccc3c(=O)n1-2 [Compound 79] | < 50 nM |
| O=c1c2ccc(Cl)cc2nc2n1-c1ccc(Br)cc1C2 [Compound 76] | < 50 nM |
| O=C(NCc1ccc2c(=O)n3c(nc2c1)C(=O)c1cc(F)ccc1-3)OCc1ccccc1 [Compound 96, benzyl ((8-fluoro-6,12-dioxo-6,12-dihydroindolo[2,1-b]quinazolin-3-yl)methyl)carbamate] | < 50 nM |

| SMILES | IC50 |
| --- | --- |
| O=C1c2cc(Br)ccc2-n2c1nc1c(Nc3ccc(F)cc3)cccc1c2=O [Compound 121, 8-bromo-4-((4-fluorophenyl)amino)indolo[2,1-b]quinazoline-6,12-dione] | 50 to 500 nM |
| O=C1c2cc(SCc3ccccc3)ccc2-n2c1nc1c(Cl)cccc1c2=O [Compound 117] | < 50 nM |
| O=C1c2cc([N+](=O)[O-])ccc2-n2c1nc1cnccc1c2=O [Compound 57, 9-Nitropyrido[3′,4′:4,5]pyrimido[1,2-a]indole-5,11-dione] | < 50 nM |
| O=C1c2cc(F)ccc2-n2c1nc1cc(-n3ccnc3)ccc1c2=O [Compound 98, 8-fluoro-3-(1H-imidazol-1-yl)indolo[2,1-b]quinazoline-6,12-dione] | < 50 nM |
| O=C1c2cc(F)ccc2-n2c1nc1cccc(Br)c1c2=O [Compound 103, 1-bromo-8-fluoroindolo[2,1-b]quinazoline-6,12-dione] | < 50 nM |
| O=C1c2cc(SCc3ccccc3)ccc2-n2c1nc1cc(F)cc(F)c1c2=O [Compound 112] | < 50 nM |
| O=C1c2cc(F)ccc2-n2c1nc1c(OCc3ccc(F)cc3)cccc1c2=O [Compound 124] | 50 to 500 nM |
| O=C1c2cc(SCc3ccccc3)ccc2-n2c1nc1cc(Cl)ccc1c2=O [Compound 78] | 50 to 500 nM |
| O=C1c2cc(F)ccc2-n2c1nc1cc(-c3c[nH]cn3)ccc1c2=O [Compound 89, 8-fluoro-3-(1H-imidazol-4-yl)indolo[2,1-b]quinazoline-6,12-dione] | 50 to 500 nM |
| CC1(CCC(=O)Nc2ccc3c(c2)C(=O)c2nc4cc(Cl)ccc4c(=O)n2-3)N=N1 [Compound 73] | 50 to 500 nM |
| CS(=O)(=O)c1ccc2c(c1)C(=O)c1nc3cc(Cl)cc(Cl)c3c(=O)n1-2 [Compound 87] | < 50 nM |
| CNS(=O)(=O)c1ccc2c(c1)C(=O)c1nc3cc(F)ccc3c(=O)n1-2 [Compound 82] | < 50 nM |
| O=C1c2cc(SCc3ccccc3)ccc2-n2c1nc1c(Nc3ccc(F)cc3)cccc1c2=O [Compound 120, 8-(Benzylthio)-4-((4-fluorophenyl)amino)indolo[2,1-b]quinazoline-6,12-dione] | > 500 nM |
| NS(=O)(=O)c1ccc2c(c1)C(=O)c1nc3cc(F)cc(F)c3c(=O)n1-2 [Compound 109] | 50 to 500 nM |
| NS(=O)(=O)c1ccc2c(c1)C(=O)c1nc3c(Cl)cccc3c(=O)n1-2 [Compound 116] | 50 to 500 nM |
| O=C1c2c(ccc(F)c2F)-n2c1nc1ccccc1c2=O [Compound 60, 7,8-Difluoroindolo[2,1-b]quinazoline-6,12-dione] | < 50 nM |
| NCc1cccc2nc3n(c(=O)c12)-c1ccc(F)cc1C3=O [Compound 102] | < 50 nM |
| CS(=O)(=O)c1ccc2c(c1)Cc1nc3cc(F)ccc3c(=O)n1-2 [Compound 85] | 50 to 500 nM |
| CC(C)(C)OC(=O)NCCNC(=O)c1ccc2c(c1)C(=O)c1nc3cc(Cl)ccc3c(=O)n1-2 [Compound 77] | 50 to 500 nM |

Second part, the compound after the results:

| IC50 | SMILES |
| --- | --- |
| < 50 nM | CC1(CCC(=O)Nc2ccc3nc4n(c(=O)c3c2)-c2ccc(F)cc2C4=O)N=N1 [Compound 129] |
| < 50 nM | NS(=O)(=O)NCc1ccc2nc3n(c(=O)c2c1)-c1ccc(F)cc1C3=O [Compound 143] |
| < 50 nM | CS(=O)(=O)NCc1ccc2nc3n(c(=O)c2c1)-c1ccc(F)cc1C3=O [Compound 145, N-((8-fluoro-6,12-dioxo-6,12-dihydroindolo[2,1-b]quinazolin-2-yl)methyl)methanesulfonamide] |
| < 50 nM | NCc1ccc2nc3n(c(=O)c2c1)-c1ccc(F)cc1C3=O [Compound 144, 2-(aminomethyl)-8-fluoroindolo[2,1-b]quinazoline-6,12-dione hydrochloride Salt] |
| < 50 nM | CO/N=C1/c2cc(F)ccc2-n2c1nc1ccc(-c3c[nH]cn3)cc1c2=O [Compound 146] |
| < 50 nM | CO/N=C1/c2cc(F)ccc2-n2c1nc1ccc(-n3ccnc3)cc1c2=O [Compound 132] |
| < 50 nM | COc1cc(OC)nc(Nc2ccc3nc4n(c(=O)c3c2)-c2ccc(F)cc2C4=O)n1 [Compound 135, 2-((4,6-dimethoxypyrimidin-2-yl)amino)-8-fluoroindolo[2,1-b]quinazoline-6,12-dione] |
| 50 to 500 nM | O=C1c2cc(F)ccc2-n2c1nc1c(Nc3ccc(F)cc3)cccc1c2=O [Compound 125] |
| 50 to 500 nM | CO/N=C1/c2cc(F)ccc2-n2c1nc1ccc(CN(C)C)cc1c2=O [Compound 138, (Z)-2-((dimethylamino)methyl)-8-fluoro-6-(methoxyimino)indolo[2,1-b]quinazolin-12(6H)-one Trifluoroacetate Salt] |
| 50 to 500 nM | CO/N=C1/c2cc(F)ccc2-n2c1nc1ccc(CNc3ccccn3)cc1c2=O [Compound 134, (Z)-8-fluoro-6-(methoxyimino)-2-((pyridin-2-ylamino)methyl)indolo[2,1-b]quinazolin-12(6H)-one] |
| < 50 nM | COC(=O)c1ccc2nc3n(c(=O)c2c1)-c1ccc(F)cc1C3=O [Compound 150, methyl 8-fluoro-6,12-dioxo-6,12-dihydroindolo[2,1-b]quinazoline-2-carboxylate] |
| < 50 nM | O=C1c2cc(F)ccc2-n2c1nc1ccc(CBr)cc1c2=O [Compound 133, 2-(bromomethyl)-8-fluoroindolo[2,1-b]quinazoline-6,12-dione] |
| > 500 nM | O=C(O)c1ccc2nc3n(c(=O)c2c1)-c1ccc(F)cc1C3=O [Compound 153, 8-fluoro-6,12-dioxo-6,12-dihydroindolo[2,1-b]quinazoline-2-carboxylic Acid] |
| < 50 nM | NC(=O)c1ccc2nc3n(c(=O)c2c1)-c1ccc(F)cc1C3=O [Compound 149, 8-fluoro-6,12-dioxo-6,12-dihydroindolo[2,1-b]quinazoline-2-carboxamide] |
| 50 to 500 nM | N=C(N)NCc1ccc2nc3n(c(=O)c2c1)-c1ccc(F)cc1C3=O [Compound 147, 1-((8-fluoro-6,12-dioxo-6,12-dihydroindolo[2,1-b]quinazolin-2-yl)methyl)guanidine] |
| < 50 nM | CC(=O)NCc1ccc2nc3n(c(=O)c2c1)-c1ccc(F)cc1C3=O [Compound 142, N-((8-fluoro-6,12-dioxo-6,12-dihydroindolo[2,1-b]quinazolin-2-yl)methyl)acetamide] |
| < 50 nM | CO/N=C1/c2cc(C#N)ccc2-n2c1nc1ccc(CN3CCOCC3)cc1c2=O [Compound 131, (Z)-6-(methoxyimino)-2-(morpholinomethyl)-12-oxo-6,12-dihydroindolo[2,1-b]quinazoline-8-carbonitrile] |
| 50 to 500 nM | O=C1c2cc(F)ccc2-n2c1nc1ccc(CNc3ccccn3)cc1c2=O [Compound 141, 8-fluoro-2-((pyridin-2-ylamino)methyl)indolo[2,1-b]quinazoline-6,12-dione] |

— patent US20250171452A1 (Viscient Bio, Inc., priority 2022, published 2025)
